Results: patent publication US10323031B2, “Pesticidally active tetracyclic derivatives with sulfur containing substituents” (Syngenta Participations AG, priority 2015, dated 2019)

What was measured:
Format in all cases: in vivo
[1] = system: Spodoptera littoralis (Egyptian Cotton Leaf Worm); experiment: Spodoptera littoralis on sprayed cotton leaf discs (Example B8); settings: foliar, 72 h, application rate of 200 ppm, L1 larvae, 3 days after infestation, read-out: control (mortality, anti-feeding effect, growth inhibition)
Protocol: (§1) Spodoptera littoralis (Egyptian Cotton Leaf Worm)
Cotton leaf discs were placed onto agar in 24-well microtiter plates and sprayed with aqueous test solutions prepared from 10,000 ppm DMSO stock solutions. After drying the leaf discs were infested with five L1 larvae. The samples were assessed for mortality, anti-feeding effect, and growth inhibition in comparison to untreated samples 3 days after infestation. Control of Spodoptera littoralis by a test sample is given when at least one of the categories mortality, anti-feedant effect, and growth inhibition is higher than the untreated sample.

[2] = system: Diabrotica Balteata (Corn root worm); experiment: Diabrotica balteata larvae on maize sprouts (Example B2); settings: 96 h, application rate of 200 ppm, L2 larvae, 4 days after infestation, read-out: effect in at least one of the two categories (mortality or growth inhibition)
Protocol: Diabrotica Balteata (Corn root worm)
Maize sprouts placed onto an agar layer in 24-well microtiter plates were treated with aqueous test solutions prepared from 10,000 ppm DMSO stock solutions by spraying. After drying, the plates were infested with L2 larvae (6 to 10 per well). The samples were assessed for mortality and growth inhibition in comparison to untreated samples 4 days after infestation.

[3] = system: Plutella xylostella (Diamond Back Moth); experiment: Plutella xylostella larvae on artificial diet (Example B7); settings: 120 h, application rate of 200 ppm, L2 larvae, 5 days after infestation, read-out: effect in at least one of the two categories (mortality or growth inhibition)
Protocol: Plutella xylostella (Diamond Back Moth)
24-well microtiter plates with artificial diet were treated with aqueous test solutions prepared from 10,000 ppm DMSO stock solutions by pipetting. After drying, the plates were infested with L2 larvae (10 to 15 per well). The samples were assessed for mortality and growth inhibition in comparison to untreated samples 5 days after infestation.

[4] = system: Euschistus heros (Neotropical Brown Stink Bug); experiment: Euschistus heros nymphs on soybean leaves (Example B3); settings: 120 h, application rate of 200 ppm, N2 nymphs, 5 days after infestation, read-out: effect in at least one of the two categories (mortality or growth inhibition)
Protocol: Euschistus heros (Neotropical Brown Stink Bug)
Soybean leaves on agar in 24-well microtiter plates were sprayed with aqueous test solutions prepared from 10,000 ppm DMSO stock solutions. After drying the leaves were infested with N2 nymphs. The samples were assessed for mortality and growth inhibition in comparison to untreated samples 5 days after infestation.

[5] = system: Tetranychus urticae (Two-spotted Spider Mite); experiment: Tetranychus urticae feeding/contact activity (Example B10); settings: foliar, 192 h
Protocol: Tetranychus urticae (Two-spotted Spider Mite): Feeding/Contact Activity
Bean leaf discs on agar in 24-well microtiter plates were sprayed with aqueous test solutions prepared from 10,000 ppm DMSO stock solutions. After drying the leaf discs were infested with a mite population of mixed ages. The samples were assessed for mortality on mixed population (mobile stages) 8 days after infestation.

[6] = system: Frankliniella occidentalis (Western Flower Thrips); experiment: Frankliniella occidentalis feeding/contact activity (Example B4); settings: foliar, 168 h, application rate of 200 ppm, sunflower leaf discs, population of mixed ages, 7 days after infestation
Protocol: Frankliniella occidentalis (Western Flower Thrips): Feeding/Contact Activity
Sunflower leaf discs were placed on agar in 24-well microtiter plates and sprayed with aqueous test solutions prepared from 10,000 DMSO stock solutions. After drying the leaf discs were infested with a Frankliniella population of mixed ages. The samples were assessed for mortality 7 days after infestation.

[7] = system: Myzus persicae (Green Peach Aphid); experiment: Myzus persicae feeding/contact activity (Example B5); settings: foliar, 144 h, application rate of 200 ppm, sunflower leaf discs, aphid population of mixed ages, 6 days after infestation
Protocol: Myzus persicae (Green Peach Aphid): Feeding/Contact Activity
Sunflower leaf discs were placed onto agar in a 24-well microtiter plate and sprayed with aqueous test solutions prepared from 10,000 ppm DMSO stock solutions. After drying, the leaf discs were infested with an aphid population of mixed ages. The samples were assessed for mortality 6 days after infestation.

[8] = system: Spodoptera littoralis (Egyptian Cotton Leaf Worm); experiment: Spodoptera littoralis, uptake by lettuce roots from agar (Example B9); settings: 144 h, test rate of 12.5 ppm, lettuce grown on treated agar, eggs, 6 days after infestation, read-out: effect in at least one of the three categories (mortality, anti-feeding, or growth inhibition)
Text: as §1
Test compounds were applied by pipette from 10,000 ppm DMSO stock solutions into 24-well plates and mixed with agar. Lettuce seeds were placed onto the agar and the multi well plate was closed by another plate which contained also agar. After 7 days the compound was absorbed by the roots and the lettuce grew into the lid plate. The lettuce leaves were then cut off into the lid plate. Spodoptera eggs were pipetted through a plastic stencil onto a humid gel blotting paper and the lid plate was closed with it. The samples were assessed for mortality, anti-feedant effect and growth inhibition in comparison to untreated samples 6 days after infestation.

[9] = system: Myzus persicae (Green Peach Aphid); experiment: Myzus persicae systemic activity (Example B6); settings: 144 h, test rate of 24 ppm, roots of pea seedlings in test solution, 6 days
Protocol: Myzus persicae (Green Peach Aphid): Systemic Activity
Roots of pea seedlings infested with an aphid population of mixed ages were placed directly into aqueous test solutions prepared from 10,000 DMSO stock solutions. The samples were assessed for mortality 6 days after placing seedlings into test solutions.

[10] = system: Bemisia Tabaci (Cotton White Fly); experiment: Bemisia tabaci feeding/contact activity (Example B1); settings: foliar, 144 h, application rate of 200 ppm, cotton leaf discs, adult white flies, 6 days after incubation
Protocol: Bemisia Tabaci (Cotton White Fly): Feeding/Contact Activity
Cotton leaf discs were placed on agar in 24-well microtiter plates and sprayed with aqueous test solutions prepared from 10,000 ppm DMSO stock solutions. After drying the leaf discs were infested with adult white flies. The samples were checked for mortality 6 days after incubation.

CCSc1cc2ccccc2cc1-c1nc2cc(C(F)(F)F)n(CC)c(=O)c2n1C [Compound A1, 5-ethyl-2-(3-ethylsulfanyl-2-naphthyl)-3-methyl-6-(trifluoromethyl)-3aH-imidazo[4,5-c]pyrid in-4-one]
≥ 80%: mortality at 200 ppm [1] | percent effect (mortality or growth inhibition) at 200 ppm [2] | percent effect (mortality or growth inhibition) at 200 ppm [3] | percent effect (mortality or growth inhibition) at 200 ppm [4]

CCn1c(C(F)(F)F)cc2nc(-c3cc4ccccc4cc3S(=O)(=O)CC)n(C)c2c1=O [Compound A2, 5-ethyl-2-(3-ethylsulfonyl-2-naphthyl)-3-methyl-6-(trifluoromethyl)-6H-im idazo[4,5-c]pyridin-4-one]
≥ 80%: mortality at 200 ppm [5] | mortality at 200 ppm [6] | mortality at 200 ppm [7] | mortality at 200 ppm [1] | percent effect (mortality or growth inhibition) at 200 ppm [2] | percent effect (mortality, anti-feeding or growth inhibition) at 12.5 ppm [8] | percent effect (mortality or growth inhibition) at 200 ppm [3] | percent effect (mortality or growth inhibition) at 200 ppm [4]

CCSc1cc2ccccc2nc1-c1nc2cc(C(F)(F)F)n(CC)c(=O)c2n1C [Compound A3, 5-ethyl-2-(3-ethylsulfanyl-2-quinolyl)-3-methyl-6-(trifluoromethyl)-3aH-imidazo[4,5-c]pyridin-4-one]
≥ 80%: mortality at 200 ppm [7] | mortality at 200 ppm [1] | percent effect (mortality or growth inhibition) at 200 ppm [2] | percent effect (mortality or growth inhibition) at 200 ppm [3]

CCSc1cc2c(cc1-c1nc3cc(C(F)(F)F)n(CC)c(=O)c3n1C)nc(C(F)(F)F)n2C [Compound A5, 5-ethyl-2-[6-ethylsulfanyl-1-methyl-2-(trifluoromethyl)benzimidazol-5-yl]-3-methyl-6-(trifluoromethyl)imidazo[4,5-c]pyridin-4-one]
≥ 80%: mortality at 200 ppm [1] | percent effect (mortality or growth inhibition) at 200 ppm [4]

CCn1c(C(F)(F)F)cc2nc(-c3cc4nc(C(F)(F)F)n(C)c4cc3S(=O)(=O)CC)n(C)c2c1=O [Compound A6, 5-ethyl-2-[6-ethylsulfonyl-1-methyl-2-(trifluoromethyl)benzimidazol-5-yl]-3-methyl-6-(trifluoromethyl)imidazo[4,5-c]pyridin-4-one]
≥ 80%: mortality at 24 ppm [9] | mortality at 200 ppm [6] | mortality at 200 ppm [10] | mortality at 200 ppm [7] | mortality at 200 ppm [1] | percent effect (mortality, anti-feeding or growth inhibition) at 12.5 ppm [8] | percent effect (mortality or growth inhibition) at 200 ppm [3] | percent effect (mortality or growth inhibition) at 200 ppm [4]

CCn1c(C(F)(F)F)cc2nc(-c3cc4ccncc4cc3S(=O)(=O)CC)n(C)c2c1=O [Compound A8, 5-ethyl-2-(7-ethylsulfonyl-6-isoquinolyl)-3-methyl-6-(trifluoromethyl)imidazo[4,5-c]pyridin-4-one]
≥ 80%: mortality at 200 ppm [1] | percent effect (mortality or growth inhibition) at 200 ppm [2] | percent effect (mortality or growth inhibition) at 200 ppm [3] | percent effect (mortality or growth inhibition) at 200 ppm [4]

CCn1c(C(F)(F)F)cc2nc(-c3cc4cc[n+]([O-])cc4cc3S(=O)(=O)CC)n(C)c2c1=O [Compound A9, 5-ethyl-2-(7-ethylsulfonyl-2-oxido-isoquinolin-2-ium-6-yl)-3-methyl-6-(trifluoromethyl)imidazo[4,5-c]pyridin-4-one]
≥ 80%: mortality at 24 ppm [9] | mortality at 200 ppm [1] | percent effect (mortality or growth inhibition) at 200 ppm [3]
